Assay results: paper PMC6010102, “N-thioalkylcarbazoles derivatives as new anti-proliferative agents: synthesis, characterisation and molecular mechanism evaluation” (Journal of Enzyme Inhibition and Medicinal Chemistry, 2018)

Tested on: Cytochrome c
Assay: Cytochrome c immunofluorescence in HeLa cells
Type: cell-based, human
Settings: concentration equal to IC50, 24 h
Experimental: Cells were grown on glass coverslips in full media, then serum-deprived for 24 h and exposed to compound to test, at the indicated time. Then, they were PBS-washed, fixed with cold methanol (15 min/−20 °C) and washed three times (10 min/room temperature) with cold PBS containing 0.01% TritonX-100. After incubation (30 min/room temperature) with blocking solution (PBS, 2% BSA), they were incubated with primary antibody diluted in blocking solution (4 °C/overnight). The mouse anti-cytochrome c (556433) was purchased from BD Biosciences (Franklin Lakes, NJ) and used at 1:100 dilution. Coverslips were then washed three times with PBS, then fixed cells were incubated with the secondary antibody Alexa Fluor® 568 conjugate goat-anti-mouse (1:500, Thermo Fisher Scientific, Waltham, MA). Nuclei were stained using DAPI (Sigma-Aldrich, Milan, Italy) for 10 min at a concentration of 0.2 µg/mL then washed three times with PBS. Fluorescence was detected using a fluorescence microscope (Leica DM 6000 Leica, Frankfurt am Main, Germany). LASX software was used to acquire and process all images.

For `Cc1ccc(C)c2c1c1cc(Br)ccc1n2CCCCCCCS` [5c, 7-(6-Bromo-1,4-dimethyl-9H-carbazol-9-yl)-heptane-1-thiol], the Cytochrome c localisation was “determines the release of Cytochrome c from mitochondria to the cytosol”.
